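Assay format: 96-well plates, 48-hour exposure. GI50 marks 50% less growth. TGI marks complete inhibition of growth.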
Experiments:
Experiment in all cases: inhibition of tumour cell growth, NCI panel, 48 h
MALME-3M melanoma = system: MALME-3M melanoma
UACC-257 melanoma = system: UACC-257 melanoma
NCI-H460 lung = system: NCI-H460 lung
LOX IMVI melanoma = system: LOX IMVI melanoma
MDA-MB-435 = system: MDA-MB-435
T-47D breast = system: T-47D breast
HOP-92 NSCLC = system: HOP-92 NSCLC
NCI-H23 lung = system: NCI-H23 lung
DU-145 prostate = system: DU-145 prostate
SF-268 CNS = system: SF-268 CNS
SK-OV-3 ovarian = system: SK-OV-3 ovarian
BT-549 breast = system: BT-549 breast
U251 CNS = system: U251 CNS
M14 melanoma = system: M14 melanoma
HL-60(TB) leukemia = system: HL-60(TB) leukemia
RXF 393 renal = system: RXF 393 renal
K-562 leukemia = system: K-562 leukemia
NCI-H522 lung = system: NCI-H522 lung
SR leukemia = system: SR leukemia
HCT-15 colon = system: HCT-15 colon
SNB-75 CNS = system: SNB-75 CNS
COLO 205 colon = system: COLO 205 colon
A549 NSCLC = system: A549 NSCLC
MOLT-4 leukemia = system: MOLT-4 leukemia
SF-539 CNS = system: SF-539 CNS
A498 renal = system: A498 renal
OVCAR-3 ovarian = system: OVCAR-3 ovarian
SK-MEL-28 melanoma = system: SK-MEL-28 melanoma
NCI-H226 lung = system: NCI-H226 lung

O=c1cc(-c2ccccc2)oc2cc(OCCCNCc3ccccc3)cc(O)c12
GI50 (MALME-3M melanoma): 1.53 µM | TGI (MALME-3M melanoma): 3.2 µM | GI50 (UACC-257 melanoma): 2.13 µM | TGI (UACC-257 melanoma): 5.1 µM | GI50 (NCI-H460 lung): 4.15 µM | TGI (NCI-H460 lung): 20.8 µM | GI50 (LOX IMVI melanoma): 1.84 µM | TGI (LOX IMVI melanoma): 3.92 µM | GI50 (MDA-MB-435): 10.1 µM | TGI (MDA-MB-435): 21.7 µM | GI50 (T-47D breast): 2.81 µM | TGI (T-47D breast): 8.68 µM | GI50 (HOP-92 NSCLC): 1.56 µM | TGI (HOP-92 NSCLC): 17.1 µM | GI50 (NCI-H23 lung): 11.9 µM | TGI (NCI-H23 lung): 26.3 µM | GI50 (DU-145 prostate): 7.59 µM | TGI (DU-145 prostate): 20.4 µM | GI50 (SF-268 CNS): 4.81 µM | TGI (SF-268 CNS): 30.3 µM | GI50 (SK-OV-3 ovarian): 10.2 µM | TGI (SK-OV-3 ovarian): 22.6 µM | GI50 (BT-549 breast): 8.5 µM | TGI (BT-549 breast): 22.2 µM | GI50 (U251 CNS): 3.69 µM | TGI (U251 CNS): 19.1 µM | GI50 (M14 melanoma): 2.64 µM | TGI (M14 melanoma): 6.88 µM | GI50 (HL-60(TB) leukemia): 1.89 µM | TGI (HL-60(TB) leukemia): 5.03 µM | GI50 (RXF 393 renal): 1.97 µM | TGI (RXF 393 renal): 8.11 µM | GI50 (K-562 leukemia): 3.16 µM | TGI (K-562 leukemia): > 100 µM | GI50 (NCI-H522 lung): 6.21 µM | TGI (NCI-H522 lung): 26.2 µM | GI50 (SR leukemia): 2.91 µM | TGI (SR leukemia): > 100 µM | GI50 (HCT-15 colon): 3.54 µM | TGI (HCT-15 colon): 13.1 µM | GI50 (SNB-75 CNS): 2.4 µM | TGI (SNB-75 CNS): 16.5 µM | GI50 (COLO 205 colon): 1.98 µM | TGI (COLO 205 colon): 3.82 µM | GI50 (A549 NSCLC): 4.33 µM | TGI (A549 NSCLC): 46.4 µM | GI50 (MOLT-4 leukemia): 3.53 µM | TGI (MOLT-4 leukemia): > 100 µM | GI50 (SF-539 CNS): 5.64 µM | TGI (SF-539 CNS): 18.7 µM | GI50 (A498 renal): 3.94 µM | TGI (A498 renal): 16.9 µM | GI50 (OVCAR-3 ovarian): 10 µM | TGI (OVCAR-3 ovarian): 23.7 µM | GI50 (SK-MEL-28 melanoma): 2.31 µM | TGI (SK-MEL-28 melanoma): 5.39 µM | GI50 (NCI-H226 lung): 11.1 µM | TGI (NCI-H226 lung): 41.9 µM

Reference: PubChem BioAssay (NCI)
